The source of these data is patent US8722725B2, “Caffeoylquinic acid derivatives containing nitrogen, and preparation method, pharmaceutical composition and usage thereof” (Zhejiang Medicine Co., Ltd. Xinchang Pharmaceutical Factory, priority 2007, dated 2014).

The structures appear in SMILES notation. ≈ marks a conversion by molar mass, not a printed value. Read-outs that look alike come from different tables or passages of the source. A value given as a limit tells only on which side of the number the result lay.

Common to all, as to assay type: cell-based
The subject of data set [1] is respiratory syncytial virus (RSV), Long strain. Kind of data set: Inhibitory effect on anti-RSV in vitro (CPE in Hep-2 cells, 72 h, Reed-Muench). As to conditions: human respiratory syncytial virus, read-out: IC50 (half inhibition concentration, RSV). The protocol: Anti-RSV in vitro of the above partial compounds is tested. With Hep-2 cell (human laryngocarcinoma cell) as viral host, Hep-2 cytopathic extent caused by inhibiting RSV is measured and observed for 72 h. Half inhibition concentration (IC50) of samples with respect to respiratory syncytial virus (RSV), its maximum of non toxicity concentration (TC0) and half toxicity concentration (TC50) of samples with respect to Hep-2 cell are respectively calculated by methods of Reed-Muench.
Virus strains: RSV, Long strain
Sample treatment: before using, sample is prepared for a suitable concentration by being dissolved in DMSO, and is diluted to 3 times with a culture medium to form eight dilutions.
Positive control drug: ribavirin (RBV)
(§1) Test method: After Hep-2 cell is cultured in 96-well plate for 24 h, it is infected respiratory syncytial virus (RSV) (200TCID50 infective dose) and absorbed for 4 h to get a viral liquid. Then the viral liquid is discarded. The sample is added thereto according to the above eight dilutions, in the meantime cell control wells of positive drugs, normal cell control wells and viral control wells are set. The cytopathic extent (CPE) is observed for 72 h. Half inhibition concentration (IC50) of samples with respect to respiratory syncytial virus (RSV), its maximum of no toxicity concentration (TC0) and half toxicity concentration (TC50) of samples with respect to Hep-2 cells are respectively calculated by method of Reed-Muench.

Data set [2] has as its system human hepatoma carcinoma cells (Hep G2) 2.2.15 cell line. Kind of data set: Cell toxicity in 2.2.15 cells (cytopathic cells observed for 8 days, Reed-Muench). The protocol:
(§2) Anti-hepatitis (HBV) DNA virus in vitro of the above partial compounds is tested. human hepatoma carcinoma cells (Hep G2) in the 2.2.15 cell line are transfected by DNA cloning of hepatitis B virus (HBV), the inhibitory effect on cell toxicity and HBV DNA secretion are studied. Half inhibition concentration (IC50) and half toxicity concentration (TC50) of samples are measured, the inhibition ratio to HBV DNA in the 2.2.15 cell culture are obtained respectively.
Virus strains: human hepatoma carcinoma cells (Hep G2) in 2.2.15 cell line are transfected by DNA cloning of hepatitis B virus (HBV).
Sample treatment: the sample is prepared for a suitable concentration by being dissolved in DMSO and preserved at 4° C. before using. When using, the required concentration is prepared by using a 2.2.15 cell culture medium.
Test method: The sample is prepared for a 20 mg/ml mother liquor, and is further prepared for a required concentration by using a 2.2.15 cell culture medium. Then the above solution is diluted to 5 times from 200 μg/ml with the culture medium to form eight kinds of concentrations. The above solution is added to a 96-well cell plate, each of concentration is placed in 3 wells, and the medical solution with the same concentration is changed every 4 days. Cell control group without drug is set to observe cytopathic cell as a target, the cytopathic cell is observed under a microscope for 8 days, wherein full destruction is about 4; 75% of cytopathic cells are about 3; 50% of cytopathic cells are about 2; 25% of cytopathic cells are about 1; no cytopathic cells is about 0. Mean cytopathic extent and inhibition ratio of medical solutions for each concentration are calculated. Half toxicity concentration (TC50) and its maximum of non toxicity concentration (TC0) are respectively calculated by the method of Reed-Muench. According to the method of molecular cloning experimental technology, firstly the HBV DNA is extracted from 2.2.15 cells of medical solution of each concentration group and cell control groups, and then a dot blot hybridization and autoradiography of each sample are measured. After measuring IOD value or OD value of every hybridization dot, the inhibition ratio is calculated.

For data set [3], the system named is Hep-2 cell (human laryngocarcinoma cell). Kind of data set: Toxicity of samples with respect to Hep-2 cell (CPE, Reed-Muench). As to conditions: 72 h. The method, then: as §1, with “Anti-RSV in vitro of the above partial compounds is tested. With Hep-2 cell (human laryngocarcinoma cell) as viral host, Hep-2 cytopathic extent caused by inhibiting RSV is measured and observed for 72 h. Half inhibition concentration (IC50) of samples with respect to respiratory syncytial virus (RSV), its maximum of non toxicity concentration (TC0) and half toxicity concentration (TC50) of samples with respect to Hep-2 cell are respectively calculated by methods of Reed-Muench. Sample treatment: before using, sample is prepared for a suitable concentration by being dissolved in DMSO, and is diluted to 3 times with a culture medium to form eight dilutions. Test” for “Test”

Data set [4] has as its system HIV-1 IIIB virus strain. The data set is described as follows: Inhibitory effect on HIV-1 IIIB in MT-4 cells (P24 antigen ELISA of cell culture supernatant). As to conditions: Human immunodeficiency virus 1, IIIB, MT4, 96 h, read-out: IC50 (half inhibition concentration, HIV-1 IIIB). The protocol: (§3) Anti-HIV-1 IIIB/H9 in vitro of the above partial compounds is tested. Half inhibition concentration (IC50) of samples and half toxicity concentration (TC50) of samples are respectively measured after culturing MT-4 cells, wherein the cell toxicity is measured by the method of CPE, and the inhibitory effects on HIV-1 IIIB of compounds are measured by method of measuring P24 antigen of cell culture supernatant.
Virus strains: HIV-1 IIIB virus strain
Sample treatment: before using, the sample is prepared for a suitable concentration by being dissolved in DMSO and then is further prepared for a cell culture medium.
Positive control drug: Zidovudine (AZT)
HIV-1 P24 antigen detection kit: Use products of BioMerieux Corporation in Holland.
HIV-1 P24 antigen is measured by the method of ELISA. After counting the MT-4 cells, the cells are infected in the virus dose of 100TCID50 and absorbed for 1.5 h in the incubator of 37° C., 5% CO2 and a saturated humidity. The cells are inoculated in a 96-well plate at the density of 2×10^5 cells/ml. After adding a diluted drug 100 ul/well, the culture of the plate is cultured at the incubator of 37° C., 5% CO2 and a saturated humidity for 4 days (96 h). Cell supernatant is taken out and diluted in the ratio of 1:3000. HIV-1 P24 titer is measured according to the test steps provided by HIV-1 P24 antigen kit. Compared adding drug groups with viral control groups, half inhibition concentration (IC50) of samples and half toxicity concentration (TC50) of samples are respectively calculated
Background: An ELISA detects its analyte on a solid surface through an enzyme-linked reagent.

Data set [5] relates to T-lymphocyte MT-4. The data set is described as follows: Cell toxicity in MT-4 cells by method of CPE (96 h). The method, then:
as §3
Test method: The toxicity of drug in cell (TC50 and TC0) is measured by method of CPE. 100 μl cell is inoculated in 96-well plate at a density of 2×10^5 cells/ml. In the meantime, the medical solution 100 μl of 8 kinds of concentration of samples or positive drug zidovudine which are respectively diluted to 3 times are respectively added thereto, each of concentration is placed in 3 wells which are set to a cell control group. The above plates is cultured at the incubator of 37° C., 5% CO2 and a saturated humidity. CPE Cells are observed at the fourth day (96 h) after adding drug, the cytopathic situation is recorded and TC50 and TC0 are calculated.

Data set [6] deals with hepatitis B virus (HBV) DNA. The data set is described as follows: Inhibition of HBV DNA in 2.2.15 cell culture (dot blot hybridization, autoradiography). As to conditions: concentration not given. The protocol: as §2
Virus strains: human hepatoma carcinoma cells (Hep G2) in 2.2.15 cell line are transfected by DNA cloning of hepatitis B virus (HBV). […]
Test method: The sample is prepared for a 20 mg/ml mother liquor, and is further prepared for a required concentration by using a 2.2.15 cell culture medium. […] Mean cytopathic extent and inhibition ratio of medical solutions for each concentration are calculated. Half toxicity concentration (TC50) and its maximum of non toxicity concentration (TC0) are respectively calculated by the method of Reed-Muench. According to the method of molecular cloning experimental technology, firstly the HBV DNA is extracted from 2.2.15 cells of medical solution of each concentration group and cell control groups, and then a dot blot hybridization and autoradiography of each sample are measured. After measuring IOD value or OD value of every hybridization dot, the inhibition ratio is calculated.

The mark [7] stands for this setting: RSV Long strain in Hep-2 cell, CPE, 72 h.

For the compound `O=C(/C=C/c1ccc(O)c(O)c1)O[C@@H]1C[C@](O)(C(=O)NC2CC2)C[C@@H](OC(=O)/C=C/c2ccc(O)c(O)c2)[C@H]1O` [1-1], in data set [1] (setting [7]), the IC50 is greater than 111 µg/mL. In addition, in data set [2], the “Cell toxicity TC0” value was found to be 1.6 µg/mL and the “Cell toxicity TC50” value was 27.59 µg/mL. In addition, in data set [3], the “TC0 (maximum of non toxicity concentration)” value amounted to 37.04 µg/mL and the “TC50 (half toxicity concentration)” value worked out at 111.11 µg/mL (≈ 200 µM).

`O=C(/C=C/c1ccc(O)c(O)c1)O[C@@H]1C[C@](OC(=O)/C=C/c2ccc(O)c(O)c2)(C(=O)N2CCCC2)C[C@@H](O)[C@H]1O` [2-3]: the IC50 in data set [1] (setting [7]) is greater than 12.3 µg/mL. For the same compound, in data set [2], the “Cell toxicity TC0” value worked out at 0.32 µg/mL and the “Cell toxicity TC50” value was determined as 3.58 µg/mL. For the same compound, in data set [3], the “TC0 (maximum of non toxicity concentration)” value was 4.12 µg/mL and the “TC50 (half toxicity concentration)” value is 12.35 µg/mL (≈ 21.7 µM).

As for `CNC(=O)[C@]1(O)C[C@@H](OC(=O)/C=C/c2ccc(O)c(O)c2)[C@@H](O)[C@H](OC(=O)/C=C/c2ccc(O)c(O)c2)C1` [3-1], the IC50 in data set [4] worked out at 1.83 µg/mL (≈ 3.46 µM); in data set [1] (setting [7]), 16.2 µg/mL (≈ 30.7 µM). The “TC50 (half toxicity concentration)” value was 32.08 µg/mL (≈ 60.6 µM) in data set [5] (human) and 64.15 µg/mL (≈ 121 µM) in data set [3]. Further, the “Cell toxicity TC0” value in data set [2] worked out at 1.6 µg/mL. The “Cell toxicity TC50” value in data set [2] turned out to be 27.59 µg/mL. The “TC0 (maximum of non toxicity concentration)” value in data set [3] came out at 37.04 µg/mL.

Turning to `CNC(=O)[C@]1(OC(=O)/C=C/c2ccc(O)c(O)c2)C[C@@H](O)[C@@H](O)[C@H](OC(=O)/C=C/c2ccc(O)c(O)c2)C1` [3-3], the IC50 in data set [1] (setting [7]) is greater than 111 µg/mL. Besides, in data set [2], the “Cell toxicity TC0” value came to 0.32 µg/mL and the “Cell toxicity TC50” value stood at 3.58 µg/mL. Also, in data set [3], the “TC0 (maximum of non toxicity concentration)” value stood at 37.04 µg/mL and the “TC50 (half toxicity concentration)” value was found to be 111.11 µg/mL (≈ 210 µM).

Turning to `CNC(=O)[C@]1(O)C[C@@H](O)[C@@H](O)[C@H](OC(=O)/C=C/c2ccc(O)c(O)c2)C1` [3-5], in data set [1] (setting [7]), the IC50 was 7.13 µg/mL (≈ 19.4 µM). Further, in data set [2], the “Cell toxicity TC0” value was 8 µg/mL and the “Cell toxicity TC50” value worked out at 89.44 µg/mL. In data set [3], the “TC0 (maximum of non toxicity concentration)” value is 12.35 µg/mL and the “TC50 (half toxicity concentration)” value was determined as 37.04 µg/mL (≈ 101 µM).

As for `CNC(=O)[C@]1(O)C[C@@H](OC(=O)/C=C/c2ccc(O)c(O)c2)[C@@H](OC(=O)/C=C/c2ccc(O)c(O)c2)[C@H](OC(=O)/C=C/c2ccc(O)c(O)c2)C1` [3-7], the IC50 in data set [4] came out at 1.02 µg/mL (≈ 1.47 µM). In addition, the IC50 in data set [1] (setting [7]) was greater than 64.2 µg/mL. Besides, in data set [6], the “HBV DNA Inhibition ratio (%)” value is given as 41.71%. Also, the “TC50 (half toxicity concentration)” value in data set [5] (human) was 32.08 µg/mL (≈ 46.4 µM). In data set [2], the “Cell toxicity TC0” value was greater than 200 µg/mL and the “Cell toxicity TC50” value is greater than 200 µg/mL. In addition, in data set [3], the “TC0 (maximum of non toxicity concentration)” value is 37.04 µg/mL and the “TC50 (half toxicity concentration)” value came out at 64.15 µg/mL (≈ 92.8 µM).

Turning to `Nc1ccn([C@@H]2CS[C@H](CO)O2)c(=O)n1` [3TC, lamivudine, reference compound], the “HBV DNA Inhibition ratio (%)” value in data set [6] is 40.8~49.39%.

Regarding `Cc1cn([C@H]2C[C@H](N=[N+]=[N-])[C@@H](CO)O2)c(=O)[nH]c1=O` [AZT, zidovudine, reference compound], the IC50 in data set [4] is 0.0042 µg/mL (≈ 0.0157 µM). In data set [5] (MT-4 cells, CPE), the “TC50 (half toxicity concentration)” value stood at 20.00 µg/mL (≈ 74.8 µM).

With `NC(=O)c1ncn([C@@H]2O[C@H](CO)[C@@H](O)[C@H]2O)n1` [RBV, Ribavirin, reference compound], the IC50 in data set [1] (HEp-2, 72 h) is 1.37 µg/mL (≈ 5.61 µM).
